The values that follow come from the supplement of paper PMC10949913.

What all share (assay): area under concentration-response curve (viability) (AUC (a.u.)); higher = less active
Holding throughout (conditions): 48 h

One assay has as its system CU-ACC2. The gist of the method: (§1)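 Cells from three adrenocortical carcinoma lines were seeded at 500–1,000 cells/well in 5 µL medium in 1,536-well plates. Each library compound was added as 23 nL at 11 concentrations, and after 48 h CellTiter-Glo was added for 15 minutes at room temperature before reading luminescence. Plate-wise normalisation to vehicle and empty-well controls preceded curve fitting. AC50 and area under the curve were calculated only for inhibitory or non-responding curve classes.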

A further assay concerns NCI-H295R. The gist of the method: as §1
The test system of another assay is CU-ACC1. The gist of the method: as §1

As to `O=C(c1ccc(F)cc1)N1CCC[C@H](c2nc(-c3ccc(F)cc3)no2)C1`, the “area under concentration-response curve” value came to 624 with CU-ACC2 and 576 with NCI-H295R.
For `Cc1cc(O)c2c(c1)C(=O)c1cccc(O)c1C2=O`, in that order: 604 and 552.
The corresponding values for `C=Cc1cc(O)cc2nc(-c3ccc(O)c(F)c3)oc12` are 587 and 550.
The corresponding values for `C#Cc1cccc(Nc2ncnc3cc(OCCOC)c(OCCOC)cc23)c1` are 623 and 550.
For the compound `CC[C@@](C)(Nc1ccnc(-c2c[nH]c3ncccc23)n1)C(=O)NCC(F)(F)F`, the “area under concentration-response curve” value in the assay on CU-ACC2 was 589; in the assay on NCI-H295R, 539.
As to `O=C(NC[C@H]1CN(c2ccc(N3CCOCC3=O)cc2)C(=O)O1)c1ccc(Cl)s1`, the entries for the “area under concentration-response curve” value in the assay with CU-ACC2 and with NCI-H295R were 605 and 557, respectively.
For `NC/1=N/C(=O)N/C=C1F`, in that order: 633 and 595.
On to `NC[C@H](O)c1ccc(O)c(O)c1`, for which the “area under concentration-response curve” value is 636 in the assay on CU-ACC2 and 599 with NCI-H295R.
Turning to `Cc1cnc(-c2ccccc2C(C)C)nc1NCc1ccc(-n2ccnn2)cc1`, the “area under concentration-response curve” value in the assay with CU-ACC2 stood at 614; in the assay with NCI-H295R, 563.
For `CC[S+]([O-])(=O)N1CCC(CC1)C(C)[N]2C(=C(C(=O)NC\C3=C(OC)\C=C(\C)NC3=O)C4=C2C=CC=C4)C` (stereo unspecified), in that order: 562 and 511.
Consider `NNC(=O)c1ccncc1`, for which the figures for the “area under concentration-response curve” value with CU-ACC2 and with NCI-H295R were 500 and 554, respectively.
For `CC[C@H](NC(=O)[C@H](C)NC)C(=O)N1C[C@@H](O)C[C@H]1Cc1c(-c2[nH]c3cc(F)ccc3c2C[C@@H]2C[C@H](O)CN2C(=O)[C@H](CC)NC(=O)[C@H](C)NC)[nH]c2cc(F)ccc12`, in that order: 602 and 610.
For `Cn1cnc(-c2cc3nccc(Oc4ccc(NC(=S)NC(=O)Cc5ccccc5)cc4F)c3s2)c1`, in that order: 359 and 412.
For `NC(=O)c1cccnc1`, in that order: 608 and 569.
As for `NC\1=N\C(=O)N(\C=C1)[C@@H]2O[C@H](CO)[C@@H](O)[C@H]2O`, the “area under concentration-response curve” value in the assay with CU-ACC1 turned out to be 582; with CU-ACC2, 610.
Consider `CCc1ccc(N(CC(C)C)[S+](=O)([O-])c2ccc(OCC3CCOCC3)c(CO)c2)cc1`, for which the “area under concentration-response curve” value with CU-ACC1 was determined as 466; with CU-ACC2, 586.
On to `CC(C)(O)CCc1ccc(OCc2cc(-c3cccc(OC(F)F)c3)c3ncccc3c2)cc1`, for which the “area under concentration-response curve” value was 543 in the assay with CU-ACC1 and 586 in the assay with CU-ACC2.
For `CN(CCOc1ccc(-c2ccc3c(c2)OCO3)cc1C(C)(C)C)CC(=O)O`, the “area under concentration-response curve” value with CU-ACC1 came to 498; with CU-ACC2, 486.
For `O=C(Nc1ccc(OC(F)(F)F)cc1)c1sccc1NCc1ccnc2ccccc12`, in that order: 525 and 639.
Turning to `CCCCCCCCCCCC/1=C(O)/C(=O)/C=C(O)\C1=O`, the “area under concentration-response curve” value is 534 in the assay with CU-ACC1 and 593 in the assay on CU-ACC2.
Turning to `CC(C)c1ccc2oc3nc(N)c(C(=O)O)cc3c(=O)c2c1`, the “area under concentration-response curve” value in the assay on CU-ACC1 worked out at 543; in the assay with CU-ACC2 it was 606.
Turning to `CCOCc1nc2c(N)nc3ccccc3c2n1CC(C)(C)O`, the “area under concentration-response curve” value in the assay with CU-ACC1 was 510; in the assay with CU-ACC2, 562.
The corresponding values for `CN1C(=O)[C@@H](NC(=O)c2cc(Cc3ccccc3)on2)COc2ccccc21` are 361 and 325.
As for `Nc1ncnc2c1nc(Cl)n2[C@@H]1O[C@H](CO)[C@@H](O)[C@H]1O`, the “area under concentration-response curve” value was 471 with CU-ACC1 and 542 in the assay on CU-ACC2.
For `COc1ccc2[n-]c([S+]([O-])Cc3ncc(C)c(OC)c3C)nc2c1` (stereo unspecified), in that order: 387 and 398.
The corresponding values for `CSC[C@H]1CN(Cc2c[nH]c3c(N)ncnc23)C[C@@H]1O` are 364 and 417.
For `CC(C)(C)c1cc(C=C(C#N)C#N)cc(Br)c1O`, in that order: 552 and 583.
In the case of `CCC[S+]([O-])c1ccc2[nH]c(NC(=O)OC)nc2c1` (stereo unspecified), the entries for the “area under concentration-response curve” value with CU-ACC1 and with CU-ACC2 were 502 and 595, respectively.
`CC(C)(C)NC(=O)[C@H]1CC[C@H]2[C@@H]3CC[C@H]4NC(=O)\C=C/[C@]4(C)[C@H]3CC[C@]12C`: the “area under concentration-response curve” value with CU-ACC1 turned out to be 618; in the assay with CU-ACC2, 622.
For `C[C@H](NC1=NC=NC2=C1[NH]C=N2)\C3=N\C4=C(C=C(F)C=C4)C(=O)N3C5=CC=CC=C5`, the “area under concentration-response curve” value in the assay with CU-ACC1 was 344; in the assay on CU-ACC2, 280.
In the case of `CCOC(=O)N[C@@H]1CC[C@@H]2[C@@H](C1)C[C@H]1C(=O)O[C@H](C)[C@H]1[C@H]2/C=C/c1ccc(-c2cccc(F)c2)cn1`, the “area under concentration-response curve” value in the assay with CU-ACC1 is 537; with CU-ACC2, 511.
For the compound `CCC\C1=C\C(=O)NC(=S)N1`, the “area under concentration-response curve” value in the assay on CU-ACC1 came out at 467; in the assay with CU-ACC2, 545.
`CCCCC[C@H](O)/C=C/[C@H]1[C@H](O)CC(=O)[C@@H]1CCCCCCC(=O)O`: the “area under concentration-response curve” value was determined as 402 with CU-ACC1 and 612 in the assay on CU-ACC2.
The corresponding values for `COC1=CC2=C(OC\C(=C2\C3=CC=C(F)C=C3)CN4CCCC4)C=C1` are 500 and 560.
For `CCCCOc1nc(N)c2c(n1)N(Cc1cccc(CN3CCCC3)c1)CC(=O)N2`, the “area under concentration-response curve” value in the assay with CU-ACC1 was 538; with CU-ACC2 it was 506.
For `CC(C)Cc1ccc(C(C)C(=O)O)cc1` (stereo unspecified), in that order: 539 and 583.
For `CC1(N)CCN(c2cccnc2NC(=O)c2nc(-c3ncccc3C(F)(F)F)cnc2N)CC1`, in that order: 430 and 509.
As for `C[N]1C=C(C2=CC=CC=C12)\C3=C(\C(=O)NC3=O)C4=C[N](C5CCN(CC5)CC6=NC=CC=C6)C7=C4C=CC=C7`, the “area under concentration-response curve” value is 494 in the assay on CU-ACC1 and 500 in the assay on CU-ACC2.
As to `CC(C)(C)C1=NC2=C([NH]1)C3=CC=C(F)C=C3C4=C2\C=C/NC4=O`, the “area under concentration-response curve” value with CU-ACC1 is 494; in the assay on CU-ACC2, 500.
On to `CCC(=O)OCC(=O)C1(OC(=O)CC)C(C)CC2C3CC\C4=C\C(=O)\C=C/C4(C)C3(F)C(O)CC12C` (stereo unspecified), for which the “area under concentration-response curve” value in the assay on CU-ACC1 came to 528; in the assay on CU-ACC2, 613.
For `NC1CCCN(c2c(/C=C3\SC(=O)NC3=O)cccc2-c2ccccc2)C1` (stereo unspecified), the “area under concentration-response curve” value was 563 in the assay on CU-ACC1 and 648 in the assay on CU-ACC2.
Consider `c1ccc2c(Cc3c[nH]c4ccccc34)c[nH]c2c1`, for which the “area under concentration-response curve” value stood at 505 in the assay with CU-ACC1 and 574 in the assay with CU-ACC2.
As for `CN1CCN(CC1)C2=CC=C(NC3=NC=C4\C=C(\C#N)C(=O)N(C5CCCC5)C4=N3)C=C2`, the “area under concentration-response curve” value in the assay with CU-ACC1 came out at 548; in the assay on CU-ACC2, 588.
The corresponding values for `CC1=C(/C=C/C(C)=C/C=C/C(C)=C\C(=O)O)C(C)(C)CCC1` are 491 and 586.
For `O=C1CC(c2c[nH]c3ccc(F)cc23)C(=O)N1` (stereo unspecified), in that order: 465 and 424.
For `CCOC(=N)c1nc2ccc3ncnc(Nc4cc(F)c(F)cc4Cl)c3c2s1`, in that order: 424 and 653.
Regarding `COc1ccnc(C[S+]([O-])c2nc3cc(OC(F)F)ccc3[nH]2)c1OC` (stereo unspecified), the entries for the “area under concentration-response curve” value in the assay on CU-ACC1 and in the assay with CU-ACC2 were 554 and 585, respectively.
For `Nc1nnc(-c2cccc(Cl)c2Cl)c(N)n1`, in that order: 563 and 630.
The corresponding values for `CCCCCCCCCCCCCC(=O)N[C@H](CO)[C@H](O)c1ccc([N+](=O)[O-])cc1` are 502 and 598.
The corresponding values for `Cc1c(C(=O)Nc2cccc(C(F)(F)F)c2)cc(-c2ccccc2)n1CCCN1CCOCC1` are 573 and 610.
Regarding `ClC1=CC=C(C=C1)C(C#N)C2=C(Cl)C=C(C=C2Cl)N3\N=C/C(=O)NC3=O` (stereo unspecified), the entries for the “area under concentration-response curve” value in the assay on CU-ACC1 and in the assay on CU-ACC2 were 524 and 626, respectively.
As for `COc1ncnc(N[S+](=O)([O-])c2ccc(N)cc2)c1OC`, the figures for the “area under concentration-response curve” value in the assay on CU-ACC1 and with CU-ACC2 were 593 and 604, respectively.
With `CC(C)NCCCn1c(Sc2cc(Cl)cc(Cl)c2)nc2c(N)ncnc21`, the “area under concentration-response curve” value in the assay with CU-ACC1 amounted to 511; with CU-ACC2 it was 572.
